In ChEMBL document CHEMBL2203105, “Structure-related cytotoxic activity of derivatives from kulokekahilide-2, a cyclodepsipeptide in Hawaiian marine mollusk” (Bioorg Med Chem Lett, 2012):

Columns and labels:
[1] = system: K562; assay: Cytotoxicity against human K562 cells assessed as cell viability after 72 hrs by celltiter-blue assay; assay type: functional, cell-based; settings: K562, 72 h
[2] = system: MCF7; assay: Cytotoxicity against human MCF7 cells assessed as cell viability after 72 hrs by celltiter-blue assay; assay type: functional, cell-based; settings: MCF7, 72 h
[3] = system: A549; assay: Cytotoxicity against human A549 cells assessed as cell viability after 72 hrs by celltiter-blue assay; assay type: functional, cell-based; settings: A549, 72 h
[4] = Chemical stability of the compound in DMSO by NMR analysis; assay type: physicochemical

SMILES	IC50 [1]	IC50 [2]	IC50 [3]	Stability [4]
CC[C@H](C)[C@H](NC(=O)CN(C)C(=O)[C@@H](Cc1ccccc1)N(C)C(=O)[C@H](C)NC(=O)[C@H](O)CC(C)C)C(=O)O	> 10000 nM	> 10000 nM	> 10000 nM	–
C/C=C(\C)[C@H]1OC(=O)[C@@H](C)NC(=O)[C@H]([C@@H](C)CC)NC(=O)CN(C)C(=O)[C@@H](Cc2ccccc2)N(C)C(=O)[C@@H](C)NC(=O)[C@@H](CC(C)C)OC(=O)/C(C)=C/C[C@H](O)[C@@H]1C	584 nM	1640 nM	1040 nM	–
C/C=C(\C)[C@H]1OC(=O)[C@@H](C)NC(=O)[C@H]([C@@H](C)CC)NC(=O)CN(C)C(=O)[C@@H](Cc2ccc(Cl)cc2)N(C)C(=O)[C@H](C)NC(=O)[C@@H](CC(C)C)OC(=O)/C(C)=C/C[C@H](OCSC)[C@@H]1C	7.1 nM	6.5 nM	0.73 nM	–
C/C=C(\C)[C@H]1OC(=O)[C@@H](C)NC(=O)[C@H]([C@@H](C)CC)NC(=O)CN(C)C(=O)[C@@H](Cc2ccccc2)N(C)C(=O)[C@H](C)NC(=O)[C@@H](CC(C)C)OC(=O)/C(C)=C/C[C@H](OCSC)[C@@H]1C	0.0063 nM	6.3 nM	0.00019 nM	–
C/C=C(\C)[C@H]1OC(=O)[C@@H](C)NC(=O)[C@H]([C@@H](C)CC)NC(=O)CN(C)C(=O)[C@@H](Cc2ccccc2)N(C)C(=O)[C@H](C)NC(=O)[C@@H](CC(C)C)OC(=O)/C(C)=C/C[C@H](O)[C@@H]1C	0.0031 nM	0.22 nM	0.0021 nM	Stable
C/C=C(\C)[C@@H](O)[C@@H](C)[C@@H]1C/C=C(\C)C(=O)O[C@H](CC(C)C)C(=O)N[C@@H](C)C(=O)N(C)[C@H](Cc2ccc(Cl)cc2)C(=O)N(C)CC(=O)N[C@@H]([C@@H](C)CC)C(=O)N[C@H](C)C(=O)O1	0.000216 nM	0.025 nM	2e-05 nM	–
C/C=C(\C)[C@@H](O)[C@@H](C)[C@@H]1C/C=C(\C)C(=O)O[C@H](CC(C)C)C(=O)N[C@H](C)C(=O)N(C)[C@H](Cc2ccccc2)C(=O)N(C)CC(=O)N[C@@H]([C@@H](C)CC)C(=O)N[C@H](C)C(=O)O1	925 nM	3690 nM	1080 nM	–
C/C=C(\C)[C@@H](O)[C@@H](C)[C@@H]1C/C=C(\C)C(=O)O[C@H](CC(C)C)C(=O)N[C@@H](C)C(=O)N(C)[C@H](Cc2ccccc2)C(=O)N(C)CC(=O)N[C@@H]([C@@H](C)CC)C(=O)N[C@H](C)C(=O)O1	0.012 nM	0.29 nM	0.0014 nM	Stable
C/C=C(\C)[C@@H](OC(=O)[C@@H](C)N)[C@@H](C)C(C/C=C(\C)C(=O)O[C@H](CC(C)C)C(=O)N[C@@H](C)C(=O)N(C)[C@H](Cc1ccccc1)C(=O)N(C)CC(=O)N[C@H](C(=O)O)[C@@H](C)CC)OCSC (single isomer, unassigned)	> 10000 nM	> 10000 nM	> 10000 nM	–
C/C=C(\C)[C@H]1OC(=O)[C@@H](C)NC(=O)[C@H]([C@@H](C)CC)NC(=O)CN(C)C(=O)[C@@H](Cc2ccccc2)N(C)C(=O)[C@H](C)NC(=O)[C@@H](CC(C)C)OC(=O)/C(C)=C/C[C@H](OC(=O)c2ccccc2)[C@@H]1C	1.8 nM	2.9 nM	0.00058 nM	–
C/C=C(\C)[C@H]1OC(=O)[C@@H](C)NC(=O)[C@H]([C@@H](C)CC)NC(=O)CN(C)C(=O)[C@@H](Cc2ccc(Cl)cc2)N(C)C(=O)[C@H](C)NC(=O)[C@@H](CC(C)C)OC(=O)/C(C)=C/C[C@H](O)[C@@H]1C	1.1e-05 nM	0.003 nM	1e-05 nM	–
C/C=C(\C)[C@H]1OC(=O)[C@@H](C)NC(=O)[C@H]([C@@H](C)CC)NC(=O)CN(C)C(=O)[C@@H](Cc2ccccc2)N(C)C(=O)[C@@H](C)NC(=O)[C@@H](CC(C)C)OC(=O)/C(C)=C/C[C@H](OCSC)[C@@H]1C	1190 nM	> 10000 nM	4340 nM	–
